Data as given in patent US5814631A, “Quinazoline derivatives and applications thereof” (Suntory Limited, priority 1995, dated 1998).

Target: T1, human heart chymase (Homo sapiens, UniProt P23946)
T1 sequence (P23946 22-247): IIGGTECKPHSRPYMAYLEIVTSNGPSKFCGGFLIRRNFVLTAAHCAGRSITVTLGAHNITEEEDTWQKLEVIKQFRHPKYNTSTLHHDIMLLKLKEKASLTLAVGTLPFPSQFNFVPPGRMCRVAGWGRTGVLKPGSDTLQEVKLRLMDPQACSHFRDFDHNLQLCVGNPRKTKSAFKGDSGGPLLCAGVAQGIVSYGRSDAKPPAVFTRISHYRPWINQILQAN
Assay: biochemical
Conditions: Chymase inhibitive activity (IC50), Ang I substrate, 37° C., 30 min, pH 7.5
Description: That is, to 10 μl of a 20 mM trisphosphate buffer (pH 7.5) containing 2MKCl were added 10 μl of purified chymase and 5 μl of a dimethylsulfoxide (hereinafter referred to as DMSO) solution of the test sample. The mixture was preincubated at 37° C. for 10 minutes, then 25 μl of a 1 mM Ang I solution was added and the mixture preincubated at 37° C. for 30 minutes. Next, 50 μl of 30% acetic acid was added to stop the enzymatic reaction. At the same time, a blind test was performed by adding, instead of the test sample solution, 5 μl of DMSO and performing the same reaction.
The reacted solution was subjected to high performance liquid chromatography using Develosil ODS-5 (made by Nomura Kagaku, .phi.4.6 mm×150 mm) and developed at a flow rate of 2.0 ml/min in 0.05% TFA by a straight concentration gradient raising the acetonitrile from 0% to 60% over 10 minutes. This was monitored by the absorbance at 210 nm and the peaks identified by comparison with standard samples of Ang I and Ang II. The peak areas were measured by an integrating meter to quantitatively analyze the Ang I and Ang II and calculate the chymase activity.

IC50 [nM]	Compound
63	O=C(Cn1c(=O)n(S(=O)(=O)c2ccc(Cl)cc2)c(=O)c2ccc(Cl)cc21)Nc1ccccc1 [Example 38, [7-chloro-3-(4-chlorobenzenesulfonyl)-2,4(1H,3H)-quinazolinedion-1-yl]-N-phenylacetamide]
65	O=C(Cn1c(=O)n(S(=O)(=O)c2ccc(Cl)cc2)c(=O)c2ccc(Cl)cc21)Nc1ccc(O)cc1 [Example 39, [7-chloro-3-(4-chlorobenzenesulfonyl)-2,4(1H,3H)-quinazolinedion-1-yl]-N-(4-hydroxyphenyl)acetamide]
110	O=C(Cn1c(=O)n(S(=O)(=O)c2ccc(Cl)cc2)c(=O)c2ccc(Cl)cc21)Nc1cccc(O)c1 [Example 40, [7-chloro-3-(4-chlorobenzenesulfonyl)-2,4(1H,3H)-quinazolinedion-1-yl]-N-(3-hydroxyphenyl)acetamide]
310	O=C(Cn1c(=O)n(S(=O)(=O)c2ccc(Cl)cc2)c(=O)c2ccc(Cl)cc21)Nc1ccccc1O [Example 41, [7-chloro-3-(4-chlorobenzenesulfonyl)-2,4(1H,3H)-quinazolinedion-1-yl]-N-(2-hydroxyphenyl)acetamide]
420	O=C(Cn1c(=O)n(S(=O)(=O)c2ccc(Cl)cc2)c(=O)c2ccc(Cl)cc21)Nc1ccc(C(=O)O)cc1 [Example 43, [7-chloro-3-(4-chlorobenzenesulfonyl)-2,4(1H,3H)-quinazolinedion-1-yl]-N-(4-carboxyphenyl)-acetamide]
560	O=C(Cn1c(=O)n(S(=O)(=O)c2ccc(Cl)cc2)c(=O)c2ccc(Cl)cc21)Nc1ccc(CN2CCOCC2)cc1 [Example 44, [7-chloro-3-(4-chlorobenzenesulfonyl)-2,4(1H,3H)-quinazolinedion-1-yl]-N-(4-morpholinomethylphenyl)acetamide]
320	NCc1ccc(NC(=O)Cn2c(=O)n(S(=O)(=O)c3ccc(Cl)cc3)c(=O)c3ccc(Cl)cc32)cc1 [Example 46, [7-chloro-3-(4-chlorobenzenesulfonyl)-2,4(1H,3H)-quinazolinedion-1-yl]-N-(4-aminomethylphenyl)acetamide]
500	N[C@@H](CC(=O)O)C(=O)NCc1ccc(NC(=O)Cn2c(=O)n(S(=O)(=O)c3ccc(Cl)cc3)c(=O)c3ccc(Cl)cc32)cc1 [Example 48, [7-chloro-3-(4-chlorobenzenesulfonyl)-2,4(1H,3H)-quinazolinedion-1-yl]-N-(4-α-L-aspartylaminomethylphenyl)acetamide]
330	N[C@@H](CC(=O)NCc1ccc(NC(=O)Cn2c(=O)n(S(=O)(=O)c3ccc(Cl)cc3)c(=O)c3ccc(Cl)cc32)cc1)C(=O)O [Example 50, [7-chloro-3-(4-chlorobenzenesulfonyl)-2,4(1H,3H)-quinazolinedion-1-yl]-N-(4-β-L-aspartylaminomethylphenyl)acetamide]
110	N[C@@H](CC(=O)NCc1cccc(NC(=O)Cn2c(=O)n(S(=O)(=O)c3ccc(Cl)cc3)c(=O)c3ccc(Cl)cc32)c1)C(=O)O [Example 52, [7-chloro-3-(4-chlorobenzenesulfonyl)-2,4(1H,3H)-quinazolinedion-1-yl]-N-(3-β-L-aspartylaminomethylphenyl)acetamide]
50	O=C(Cn1c(=O)n(S(=O)(=O)c2ccc(Cl)cc2)c(=O)c2ccc(Cl)cc21)Nc1cccnc1 [Example 53, [7-chloro-3-(4-chlorobenzenesulfonyl)-2,4(1H,3H)-quinazolinedion-1-yl]-N-(3-pyridyl)acetamide]
34	O=C(Cn1c(=O)n(S(=O)(=O)c2ccc(Cl)cc2)c(=O)c2ccc(Cl)cc21)Nc1ccncc1 [Example 54, [7-chloro-3-(4-chlorobenzenesulfonyl)-2,4(1H,3H)-quinazolinedion-1-yl]-N-(4-pyridyl)acetamide]
72	O=C(Cn1c(=O)n(S(=O)(=O)c2ccc(Cl)cc2)c(=O)c2ccc(Cl)cc21)Nc1ccccn1 [Example 55, [7-chloro-3-(4-chlorobenzenesulfonyl)-2,4(1H,3H)-quinazolinedion-1-yl]-N-(2-pyridyl)acetamide]
31	CC[n+]1cccc(NC(=O)Cn2c(=O)n(S(=O)(=O)c3ccc(Cl)cc3)c(=O)c3ccc(Cl)cc32)c1 [Example 56, 3-{[7-chloro-3-(4-chlorobenzenesulfonyl)-2,4(1H,3H)-quinazolinedion-1-yl]acetylamino}-N-ethylpyridinium iodide]
130	C[n+]1ccc(NC(=O)Cn2c(=O)n(S(=O)(=O)c3ccc(Cl)cc3)c(=O)c3ccc(Cl)cc32)cc1 [Example 58, 4-{[7-chloro-3-(4-chlorobenzenesulfonyl)-2,4(1H,3H)-quinazolinedion-1-yl]acetylamino}-N-methylpyridinium iodide]
370	O=c1c2ccc(Cl)cc2n(Cc2ccccc2)c(=O)n1S(=O)(=O)c1ccc(Cl)cc1 [Example 59, 1-benzyl-7-chloro-3-(4-chlorobenzenesulfonyl)-2,4(1H,3H )-quinazolinedione]

IC50 [nM]	Compound
340	N#Cc1ccc(Cn2c(=O)n(S(=O)(=O)c3ccc(Cl)cc3)c(=O)c3ccc(Cl)cc32)cc1 [Example 60, 7-chloro-3-(4-chlorobenzenesulfonyl)-1-(4-cyanobenzyl)-2,4(1H,3H)-quinazolinedione]
160	N#Cc1cccc(Cn2c(=O)n(S(=O)(=O)c3ccc(Cl)cc3)c(=O)c3ccc(Cl)cc32)c1 [Example 61, 7-chloro-3-(4-chlorobenzenesulfonyl)-1-(3-cyanobenzyl)-2,4(1H,3H)-quinazolinedione]
240	O=C(O)c1cccc(Cn2c(=O)n(S(=O)(=O)c3ccc(Cl)cc3)c(=O)c3ccc(Cl)cc32)c1 [Example 66, 1-(3-carboxybenzyl)-7-chloro-3-(4-chlorobenzenesulfonyl)-2,4(1H,3H)-quinazolinedione]
110	O=C(Nc1cccnc1)c1cccc(Cn2c(=O)n(S(=O)(=O)c3ccc(Cl)cc3)c(=O)c3ccc(Cl)cc32)c1 [Example 68, 7-chloro-3-(4-chlorobenzenesulfonyl)-1-(3-(3-pyridyl)aminocarbonyl-benzyl)-2,4(1H,3H)-quinazolinedione]
230	O=C(O)CNC(=O)c1cccc(Cn2c(=O)n(S(=O)(=O)c3ccc(Cl)cc3)c(=O)c3ccc(Cl)cc32)c1 [Example 70, 3-(7-chloro-3-(4-chlorobenzenesulfonyl)-2,4(1H,3H)-quinazolinedion-1-yl)methylbenzoylglycine]
2300	O=C(O)CCC(=O)Nc1ccc(Cn2c(=O)n(S(=O)(=O)c3ccc(Cl)cc3)c(=O)c3ccc(Cl)cc32)cc1 [Example 73]
180	Nc1ccccc1Cn1c(=O)n(S(=O)(=O)c2ccc(Cl)cc2)c(=O)c2ccc(Cl)cc21 [Example 75, 1-(2-aminobenzyl)-7-chloro-3-(4-chlorobenzenesulfonyl)-2,4(1H,3H)-quinazolinedione]
140	O=C(Cn1c(=O)n(S(=O)(=O)c2ccc(Cl)cc2)c(=O)c2ccc(Cl)cc21)NCc1ccccc1 [Example 80, [7-chloro-3-(4-chlorobenzenesulfonyl)-2,4(1H,3H)-quinazolinedion-1-yl]-N-benzylacetamide]
220	O=C(Cn1c(=O)n(S(=O)(=O)c2ccc(Cl)cc2)c(=O)c2ccc(Cl)cc21)NCc1ccncc1 [Example 81, [7-chloro-3-(4-chlorobenzenesulfonyl)-2,4 (1H,3H)-quinazolinedion-1-yl]-N-(4-picolyl)acetamide]
51	O=C(Cn1c(=O)n(S(=O)(=O)c2ccc(Cl)cc2)c(=O)c2ccc(Cl)cc21)Nc1ccc2[nH]ccc2c1 [Example 82, [7-chloro-3-(4-chlorobenzenesulfonyl)-2,4(1h,3H)-quinazolinedion-1-yl]-N-(5-indolyl)acetamide]
43	O=C(O)C[n+]1cccc(NC(=O)Cn2c(=O)n(S(=O)(=O)c3ccc(Cl)cc3)c(=O)c3ccc(Cl)cc32)c1 [Example 84, 3-{[7-chloro-3-(4-chlorobenzenesulfonyl)-2,4(1H,3H)-quinazolinedion-1-yl]acetylamino}-N-carboxymethylpyridinium bromide]
190	O=C(Cn1c(=O)n(S(=O)(=O)c2ccc(Cl)cc2)c(=O)c2ccc(Cl)cc21)Nc1ccncn1 [Example 85, [7-chloro-3-(4-chlorobenzenesulfonyl)-2,4(1H,3H)-quinazolinedion-1-yl]-N-(4-pyrimidinyl)acetamide]
130	CC[n+]1cccc(NC(=O)Cn2c(=O)n(S(=O)(=O)c3ccc(OC)cc3)c(=O)c3ccc(Cl)cc32)c1 [Example 90]
180	O=C(Cn1c(=O)n(S(=O)(=O)c2ccc(Cl)cc2)c(=O)c2ccc(Cl)cc21)Nc1cccc2ncccc12 [Example 91, [7-chloro-3-(4-chlorobenzenesulfonyl)-2,4(1H,3H)-quinazolinedion-1-yl]-N-(5-quinolyl)acetamide]
390	O=C(Cn1c(=O)n(S(=O)(=O)c2ccc(Cl)cc2)c(=O)c2ccc(Cl)cc21)Nc1ccc(N2CCNCC2)cc1 [Example 93, [7-chloro-3-(4-chlorobenzenesulfonyl)-2,4(1H,3H)-quinazolinedion-1-yl]-N-(4-piperazin-1-yl)acetamide]
170	Cc1ccc(S(=O)(=O)n2c(=O)c3ccc(Cl)cc3n(CC(=O)Nc3cccnc3)c2=O)cc1 [Example 94, [7-chloro-3-(4-methylbenzenesulfonyl)-2,4(1H,3H)-quinazolinedion-1-yl]-N-(3-pyridyl)acetamide]

Compound	IC50 [nM]
CC(C)(C)OC(=O)C[n+]1cccc(NC(=O)Cn2c(=O)n(S(=O)(=O)c3ccc(Cl)cc3)c(=O)c3ccc(Cl)cc32)c1 [Example 83, 3-{[7-chloro-3-(4-chlorobenzenesulfonyl)-2,4(1H,3H)-quinazolinedion-1-yl]acetylamino}-(N-t-butoxycarbonylmethylpyridinium) bromide]	38
